Reference: ChEMBL document CHEMBL1201862, “PubChem BioAssay data set” (2004)
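Following 48 hours of exposure in 96-well plates, responses at five concentrations were used to interpolate endpoints linearly. Here, GI50 denotes the concentration required for 50% inhibition of growth.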 Calls of active or inactive are those of the source. No stated cut-off is given here; in the data, active = GI50 up to about 1.1 µM and inactive = higher.

Assays:
Assay in all cases: DTP human tumour cell line panel, 48 h
HCT-15 = test system: HCT-15
NCI-H522 = test system: NCI-H522
SW-620 = test system: SW-620
SF-539 = test system: SF-539
SK-MEL-2 = test system: SK-MEL-2
RPMI-8226 = test system: RPMI-8226
MOLT-4 = test system: MOLT-4
K562 = test system: K562
786-0 = test system: 786-0
EKVX = test system: EKVX
A549 = test system: A549
UACC-62 = test system: UACC-62
SK-OV-3 = test system: SK-OV-3
OVCAR-4 = test system: OVCAR-4
SK-MEL-28 = test system: SK-MEL-28
HOP-62 = test system: HOP-62

Structure (SMILES)	GI50 (HCT-15) [µM]	GI50 (NCI-H522)	GI50 (SW-620)	GI50 (SF-539)	GI50 (SK-MEL-2)	GI50 (RPMI-8226)	GI50 (MOLT-4)	GI50 (K562)	GI50 (786-0)	GI50 (EKVX)	GI50 (A549)	GI50 (UACC-62)	GI50 (SK-OV-3)	GI50 (OVCAR-4)	GI50 (SK-MEL-28)	GI50 (HOP-62)
CCOc1ccc(/N=C/c2ccc3ccccc3n2)cc1	> 100	> 100 µM (inactive)	> 100 µM (inactive)	> 100 µM (inactive)	> 100 µM (inactive)	> 87.1 µM (inactive)	> 100 µM (inactive)	49.8 µM (inactive)	> 100 µM (inactive)	> 100 µM (inactive)	> 100 µM (inactive)	> 100 µM (inactive)	> 100 µM (inactive)	> 100 µM (inactive)	> 100 µM (inactive)	> 100 µM (inactive)
CC1=NN(C(=O)Cc2ccccc2)C(=O)/C1=C/c1c(O)ccc2ccccc12	2.21	67.9 µM (inactive)	39.4 µM (inactive)	29.2 µM (inactive)	1.7 µM (inactive)	33.2 µM (inactive)	22.8 µM (inactive)	40.6 µM (inactive)	83.9 µM (inactive)	> 100 µM (inactive)	> 100 µM (inactive)	–	–	78.9 µM (inactive)	40.7 µM (inactive)	> 100 µM (inactive)
COC1OC(CO)C(O)C(OC(C)=O)C1NC(=O)N(CCCl)N=O (stereo unspecified)	–	> 100 µM (inactive)	> 100 µM (inactive)	34.3 µM (inactive)	0.0112 µM (active)	–	95.9 µM (inactive)	> 100 µM (inactive)	81.7 µM (inactive)	> 100 µM (inactive)	> 100 µM (inactive)	24.8 µM (inactive)	> 100 µM (inactive)	> 100 µM (inactive)	> 100 µM (inactive)	–
Cc1cccc(NC(=O)/C(=N\NC(C)(C)C)C2NC(=S)NC2=O)c1C (stereo unspecified)	> 100	–	> 100 µM (inactive)	> 100 µM (inactive)	> 100 µM (inactive)	> 100 µM (inactive)	> 100 µM (inactive)	> 100 µM (inactive)	> 100 µM (inactive)	59.6 µM (inactive)	> 100 µM (inactive)	> 100 µM (inactive)	> 100 µM (inactive)	> 100 µM (inactive)	–	> 100 µM (inactive)
O=C1Nc2ccc([N+](=O)[O-])cc2/C1=N/Nc1ccc([N+](=O)[O-])cc1	21.4	17.2 µM (inactive)	12.5 µM (inactive)	16.1 µM (inactive)	30.1 µM (inactive)	5.09 µM (inactive)	41.6 µM (inactive)	26.9 µM (inactive)	4.73 µM (inactive)	35.3 µM (inactive)	14.4 µM (inactive)	14.6 µM (inactive)	22.2 µM (inactive)	19.5 µM (inactive)	19.5 µM (inactive)	18.3 µM (inactive)
O=S(=O)(Sc1ccc(Cl)cc1)c1ccc(Cl)cc1	17.7	17.1 µM (inactive)	17.6 µM (inactive)	14.6 µM (inactive)	3.84 µM (inactive)	22.6 µM (inactive)	9.79 µM (inactive)	19.9 µM (inactive)	16 µM (inactive)	15.6 µM (inactive)	12.2 µM (inactive)	16.6 µM (inactive)	44.7 µM (inactive)	20.6 µM (inactive)	16.5 µM (inactive)	15.3 µM (inactive)
CCN1CC2(C)CC[C@@H](OC)C34[C@@H]2[C@H](OC(C)=O)C2(OCO[C@@]25C[C@H](OC)C2C[C@]3(O)[C@@H]5[C@H]2O)[C@H]14	–	> 100 µM (inactive)	> 100 µM (inactive)	> 100 µM (inactive)	> 100 µM (inactive)	–	–	–	34.2 µM (inactive)	> 100 µM (inactive)	> 100 µM (inactive)	–	–	> 100 µM (inactive)	> 100 µM (inactive)	82.6 µM (inactive)
Cc1c(NC(=S)NC(=O)c2ccc([N+](=O)[O-])cc2)c(=O)n(-c2ccccc2)n1C	> 100	> 100 µM (inactive)	> 100 µM (inactive)	> 100 µM (inactive)	> 100 µM (inactive)	> 100 µM (inactive)	> 100 µM (inactive)	> 100 µM (inactive)	> 100 µM (inactive)	> 100 µM (inactive)	> 100 µM (inactive)	> 100 µM (inactive)	> 100 µM (inactive)	> 100 µM (inactive)	> 100 µM (inactive)	> 100 µM (inactive)
CCc1cccc(CC)c1NC(=O)C1=C(C)NC(C)=C(C(=O)Nc2c(CC)cccc2CC)C1c1ccc([N+](=O)[O-])cc1	–	13.3 µM (inactive)	17.7 µM (inactive)	16.2 µM (inactive)	20 µM (inactive)	11.4 µM (inactive)	14.7 µM (inactive)	19.1 µM (inactive)	13.9 µM (inactive)	23.5 µM (inactive)	23 µM (inactive)	–	38.1 µM (inactive)	12.3 µM (inactive)	17.4 µM (inactive)	57.5 µM (inactive)
O=C1c2ccccc2C(=O)N1CCN(CCN1C(=O)c2ccccc2C1=O)Cc1ccccc1	> 100	> 100 µM (inactive)	> 100 µM (inactive)	–	> 100 µM (inactive)	> 100 µM (inactive)	> 100 µM (inactive)	> 100 µM (inactive)	> 100 µM (inactive)	> 100 µM (inactive)	> 100 µM (inactive)	36.7 µM (inactive)	> 100 µM (inactive)	> 100 µM (inactive)	> 100 µM (inactive)	> 100 µM (inactive)
Cc1nnc2n1N=C(c1ccccc1)C(c1ccccc1)S2 (stereo unspecified)	26.2	24.6 µM (inactive)	11.2 µM (inactive)	31 µM (inactive)	29.9 µM (inactive)	43.6 µM (inactive)	34.1 µM (inactive)	31.8 µM (inactive)	27 µM (inactive)	64 µM (inactive)	45.4 µM (inactive)	39.5 µM (inactive)	27.2 µM (inactive)	57.9 µM (inactive)	–	72.3 µM (inactive)
C=C(/C=C/C=C(\CO)CCC=C(C)C)[C@H]1CCC2([C@H](CCCO)/C(=C(/C)C=O)CC[C@]2(C)O)[C@H]1O (stereo partly specified)	> 100	–	> 100 µM (inactive)	83.4 µM (inactive)	> 100 µM (inactive)	> 100 µM (inactive)	> 100 µM (inactive)	51.4 µM (inactive)	> 100 µM (inactive)	83.8 µM (inactive)	59 µM (inactive)	> 100 µM (inactive)	> 100 µM (inactive)	> 100 µM (inactive)	> 100 µM (inactive)	75.9 µM (inactive)
C[C@]12CCC(=O)C=C1CC[C@@H]1C2CC[C@]2(C)c3nn(-c4ccccc4)nc3CC12 (stereo partly specified)	> 100	–	> 100 µM (inactive)	> 100 µM (inactive)	> 100 µM (inactive)	> 100 µM (inactive)	> 100 µM (inactive)	> 100 µM (inactive)	> 100 µM (inactive)	> 100 µM (inactive)	> 100 µM (inactive)	> 100 µM (inactive)	> 100 µM (inactive)	> 100 µM (inactive)	> 100 µM (inactive)	> 100 µM (inactive)
N#CC1=C(Cl)NC(Cl)=C(C#N)C1c1c(Cl)cccc1Cl	16.2	17.2 µM (inactive)	14 µM (inactive)	46 µM (inactive)	58.3 µM (inactive)	22.5 µM (inactive)	32.5 µM (inactive)	19 µM (inactive)	25.1 µM (inactive)	49.8 µM (inactive)	29.1 µM (inactive)	30.2 µM (inactive)	29.7 µM (inactive)	–	35.2 µM (inactive)	48.2 µM (inactive)
CCCCOC(=O)C1C2CCC(O2)C1C(=O)OCCCC (stereo unspecified)	> 65.2	> 100 µM (inactive)	–	> 76.6 µM (inactive)	> 100 µM (inactive)	> 49.9 µM (inactive)	> 83.4 µM (inactive)	> 100 µM (inactive)	> 44.8 µM (inactive)	> 100 µM (inactive)	> 45.4 µM (inactive)	> 100 µM (inactive)	> 100 µM (inactive)	> 87.1 µM (inactive)	> 96.8 µM (inactive)	> 100 µM (inactive)
CC(=O)Nc1ccc(/C=N\N2C(=O)c3ccccc3C2=O)cc1	> 100	–	> 100 µM (inactive)	> 100 µM (inactive)	> 100 µM (inactive)	> 100 µM (inactive)	> 100 µM (inactive)	> 100 µM (inactive)	> 100 µM (inactive)	> 100 µM (inactive)	> 100 µM (inactive)	> 100 µM (inactive)	–	> 100 µM (inactive)	> 100 µM (inactive)	> 100 µM (inactive)
Cc1ccccc1NC(=O)C(=O)CC(=O)c1c(C)[n+]([O-])c2ccccc2[n+]1[O-]	> 100	–	> 100 µM (inactive)	> 100 µM (inactive)	> 100 µM (inactive)	> 100 µM (inactive)	–	> 100 µM (inactive)	> 100 µM (inactive)	> 100 µM (inactive)	> 100 µM (inactive)	> 100 µM (inactive)	> 100 µM (inactive)	76.9 µM (inactive)	> 100 µM (inactive)	> 100 µM (inactive)
COc1ccc2ccccc2c1C1OC(=O)c2ccccc21 (stereo unspecified)	> 100	63.5 µM (inactive)	87.9 µM (inactive)	> 100 µM (inactive)	–	> 100 µM (inactive)	44.2 µM (inactive)	33 µM (inactive)	> 100 µM (inactive)	> 100 µM (inactive)	96.2 µM (inactive)	80 µM (inactive)	> 100 µM (inactive)	82.8 µM (inactive)	–	> 100 µM (inactive)
CC1(C)CC23C(=O)N(c4ccccc4)C(Nc4ccccc4)=NC2=CC(C#N)=C(C#N)C3O1 (stereo unspecified)	64.9	20.1 µM (inactive)	37.7 µM (inactive)	34.8 µM (inactive)	61.5 µM (inactive)	30.4 µM (inactive)	29.3 µM (inactive)	72.4 µM (inactive)	> 100 µM (inactive)	> 100 µM (inactive)	28.1 µM (inactive)	96.4 µM (inactive)	–	22.6 µM (inactive)	> 100 µM (inactive)	82 µM (inactive)
